Experimental data as given in patent publication US20210063414A1, “METHODS FOR PREVENTING AND/OR TREATING BONE LOSS CONDITIONS BY MODULATING IRISIN” (Dana-Farber Cancer Institute, Inc., priority 2018, published 2021).
“Also recorded” adds a separate entry of the source. Counter-ions that a name gives are not always drawn.

Columns and labels:
MLO-Y4 cells = experiment: Integrin-like signaling (pFAK, pZyxin, pAKT, pCREB) in MLO-Y4 cells, immunoblot; assay type: cell-based; settings: for effect of integrin inhibitor on irisin-induced signaling (phosphorylation of FAK, Zyxin, CREB): MLO-Y4, inhibitor pre-treatment 10 minutes before irisin
Experimental: Integrin heterodimer binds to its ligand. The interaction results in phosphorylation of FAK and Zyxin, followed by phosphorylation of AKT (at T308) and CREB. PM is plasma membrane. FIG. 2C and FIG. 2D show the immunoblots. MLO-Y4 cells were seeded and incubated until 60% cell density. The cells were incubated with serum free medium (FreeStyle™ 293 medium) for 4 hours and were treated for indicated time with 10 nM norepinephrine or irisin (FIG. 2C) or indicated concentrations of irisin for 10 minutes (FIG. 2D). Cells were lysed to detect the indicated protein level using immunoblot analysis.
(§1) Certain materials and methods were used to generate the results described herein. For example, the data shown in FIG. 1A resulted from MLO-Y4 (an osteocyte-like cell line) cells treated with the indicated concentration of irisin and hydrogen peroxide for 4 hours. Cells were stained with Hoechst 33342 (ThermoFisher Scientific, catalog number H3570) and Eth-D1 (ThermoFisher Scientific, catalog number E1169) and analyzed to determine the percentage of cell death using ImageJ. The data shown in FIG. 2D resulted from MLO-Y4 incubated in serum free medium (FreeStyle™ 293 expression medium, ThermoFisher Scientific, catalog number 12338018) for 4 hours followed by treatment of indicated concentrations of irisin for 10 minutes. Cells were lysed to detect the indicated protein level using immunoblot analysis (Cell Signaling Technology, catalog numbers 3283S, 3285S, 8467S, 3553S, 9198S, and 9104S; Abcam, catalog number ab49900-100ul). The data shown in FIG. 3 resulted from 3T3-F442A cells incubated in serum free medium for 4 hours followed by treatment of indicated concentrations of irisin for 10 minutes. Cells were lysed by RIPA buffer to detect the indicated protein level using immunoblot analysis. The data shown in FIG. 4 were generated from 100 nM flag-tagged irisin (Enzo life sciences, catalog number ADI-908-307-3010) incubated with 5 nM of the indicated 6 his-tag integrins (R & D Systems Inc., catalog numbers 7064-AB-025, 5668-A4-050, 5438-A9-050, 6357-AB-050, and 6579-AV-025) in the presence of RGDS peptide (R & D Systems Inc., catalog number 3498/10) or its control peptide (Enzo Life Sciences, catalog Number BML-P701-0005) followed by immunoprecipitation using 6 his-tag beads (ThermoFisher Scientific, catalog number R901-01). Co-precipitated irisin was analyzed by immunoblot analysis against flag tag (Sigma Aldrich, catalog number A8592). The data shown in FIGS. 5A and 5B were generated from MLO-Y4 cells treated and analyzed as in the experiments used to generate the data shown in FIG. 2D, except that pre-treatment of 100 nM RGDS (FIG. 5A) or echistatin (R & D Systems Inc., catalog number 3202/100U) (FIG. 5B) for 10 minutes was performed before irisin treatment. The data shown in FIGS. 6A and 6B were generated from MLO-Y4 cells incubated in serum free medium for 3 hours followed by treatment of indicated time of 10 nM irisin for 16 hours. RNAs were extracted from the cells and the sclerostin mRNA level was analyzed by qPCR (FIG. 6A) or treated and analyzed as in (FIG. 6A), except that pre-treatment of 10 μM RGDS, RGDyK (Selleck, catalog number S7844), or echistatin was performed for 10 minutes before irisin treatment. The data shown in FIGS. 7A and 7B were generated from 8 week-old mice injected with the indicated dose of irisin for 6 days. Tibias were collected and treated with collagenase to obtain mRNA from the osteocyte-enriched bones. Sclerostin mRNA level was analyzed by qPCR (FIG. 7A). Serum was collected to analyze the sclerostin protein level using ELISA kit (R&D Systems Inc., catalog number MSST00) (FIG. 7B). The data shown in FIG. 8 were generated from 8 week-old mice injected with the indicated dose of irisin for 6 days. Epididymal fats were collected, RNAs were extracted from the tissues, and mRNA levels of the indicated genes were analyzed by qPCR. […]

[1] = test system: sclerostin mRNA in MLO-Y4 cells; experiment: Sclerostin mRNA in MLO-Y4 cells, qRT-PCR; assay type: cell-based, mouse; settings: MLO-Y4, inhibitor pre-treatment 10 minutes, irisin 16 hours
Experimental: Cells were stained with Hoechst 33342 and Eth-D1, and analyzed to determine the percentage of cell death. *: p<0.05, ***: p<0.001 vs 0.3 mM H2O2 treated condition. […] MLO-Y4 cells were seeded and incubated until 60% cell density. The cells were incubated with Freestyle293 medium for 4 hours and were treated with indicated concentrations of irisin for 16 hours. Sclerostin mRNA level was analyzed by qRT-PCR. Cyclophilin was used as a control house-keeping gene.
MLO-Y4 cells were incubated in serum free medium for 3 hours followed by treatment of indicated concentrations of irisin for indicated time (FIG. 6A), or followed by treatment of 0 or 10 nM irisin in the presence of indicated integrin inhibitors or their control peptide for 16 hours (FIG. 6B). Sclerostin mRNA level was analyzed by qPCR.
as §1, with “The data shown in FIGS. 7A and 7B were generated from 8 week-old mice injected with the indicated dose of irisin for 6 days. Tibias were collected and treated with collagenase to obtain mRNA from the osteocyte-enriched bones.” left out, “7A).” for “7A). Serum was collected to analyze the sclerostin protein level using ELISA kit (R&D Systems Inc., catalog number MSST00) (FIG. 7B). The data shown in FIG. 8 were generated from 8 week-old mice injected with the indicated dose of irisin for 6 days. Epididymal fats were collected, RNAs were extracted from the tissues, and mRNA levels of the indicated genes were analyzed by qPCR.”

sclerostin = experiment: Irisin injection in mice: sclerostin mRNA in osteocyte-enriched bones and plasma sclerostin protein (ELISA); assay type: in vivo; settings: co-injection of 1 mg/kg inhibitor with irisin
Experimental: 8 weeks old mice were injected daily with indicated dose of irisin for 6 days. […] were collected and treated with collagenase to yield osteocyte-enriched bones. Sclerostin mRNA level from osteocyte-enriched tibia was analyzed by qPCR (FIG. 7A). Cyclophilin was used as a house-keeping gene. Plasma was collected to analyze the circulating sclerostin protein level by ELISA assay (FIG. 7B). Data are represented as mean±SEM. For FIG. 7A and FIG. 7B, n=5 animals/group. * indicates p<0.05, and *** indicates p<0.001.
Certain materials and methods were used to generate the results described herein. For example, the data shown in FIG. 1A resulted from MLO-Y4 (an osteocyte-like cell line) cells treated with the indicated concentration of irisin and hydrogen peroxide for 4 hours. Cells were stained with Hoechst 33342 (ThermoFisher Scientific, catalog number H3570) and Eth-D1 (ThermoFisher Scientific, catalog number E1169) and analyzed to determine the percentage of cell death using ImageJ. […] Co-precipitated irisin was analyzed by immunoblot analysis against flag tag (Sigma Aldrich, catalog number A8592). The data shown in FIGS. 5A and 5B were generated from MLO-Y4 cells treated and analyzed as in the experiments used to generate the data shown in FIG. 2D, except that pre-treatment of 100 nM RGDS (FIG. 5A) or echistatin (R & D Systems Inc., catalog number 3202/100U) (FIG. 5B) for 10 minutes was performed before irisin treatment. […] RNAs were extracted from the cells and the sclerostin mRNA level was analyzed by qPCR (FIG. 6A) or treated and analyzed as in (FIG. 6A), except that pre-treatment of 10 μM RGDS, RGDyK (Selleck, catalog number S7844), or echistatin was performed for 10 minutes before irisin treatment. […] Sclerostin mRNA level was analyzed by qPCR (FIG. 7A). […] Epididymal fats were collected, RNAs were extracted from the tissues, and mRNA levels of the indicated genes were analyzed by qPCR. […]

Compound	effect of integrin inhibitor on irisin-induced signaling (phosphorylation of FAK, Zyxin, CREB) (MLO-Y4 cells)	effect of integrin inhibitor on irisin-induced signaling (phosphorylation of FAK, Zyxin, CREB) (MLO-Y4 cells; listed as Echistatin)	effect of integrin inhibitor on irisin-induced sclerostin mRNA [1]	phosphorylation of CREB (positive control) (MLO-Y4 cells; MLO-Y4, 10 nM)	effect on irisin-induced gene expression of sclerostin in osteocyte-enriched bones (sclerostin)
echistatin: natural integrin inhibitor isolated from viper venom, affects primarily integrin αV complexes (QCESGPCCRNCKFLKEGTICKRARGDDMDDYCNGKTCDCPRNPHKGPAT)	most irisin signaling in osteocytes was inhibited	effectively prevented irisin signaling	sensitive; also recorded: prevented sclerostin induction		
NC[C@H](O)c1ccc(O)c(O)c1 [norepinephrine, L-(−)-Norephinephrine (+)-bitartrate salt monohyrdate]				also did this	
CNc1cccc(CCOc2ccc3c(c2)CN(CC(F)(F)F)C(=O)[C@H](CC(=O)O)C3)n1 [SB273005, reference compound]	block irisin-induced signaling				significantly prevented
